From publication PMC5119973 (Cancer Medicine, 2016)
Where two headings read alike, the source gives them in different places.

Assays:
[1] = tested on: HuLECs; test: VEGF‐C‐induced migration of HuLECs (scratch assay); format: cell-based, human; details: 100 nmol/L, 40 h
Protocol: A sterile pipette tip was then used to scratch the cell layers, and images were taken after continued incubation for 40 h.

[2] = molecular target: T1, BRAF^V600E (Homo sapiens, UniProt P15056, V600E); test: KINOMEscan active-site competitive binding assay
T1 sequence (P15056 whole entry V600E): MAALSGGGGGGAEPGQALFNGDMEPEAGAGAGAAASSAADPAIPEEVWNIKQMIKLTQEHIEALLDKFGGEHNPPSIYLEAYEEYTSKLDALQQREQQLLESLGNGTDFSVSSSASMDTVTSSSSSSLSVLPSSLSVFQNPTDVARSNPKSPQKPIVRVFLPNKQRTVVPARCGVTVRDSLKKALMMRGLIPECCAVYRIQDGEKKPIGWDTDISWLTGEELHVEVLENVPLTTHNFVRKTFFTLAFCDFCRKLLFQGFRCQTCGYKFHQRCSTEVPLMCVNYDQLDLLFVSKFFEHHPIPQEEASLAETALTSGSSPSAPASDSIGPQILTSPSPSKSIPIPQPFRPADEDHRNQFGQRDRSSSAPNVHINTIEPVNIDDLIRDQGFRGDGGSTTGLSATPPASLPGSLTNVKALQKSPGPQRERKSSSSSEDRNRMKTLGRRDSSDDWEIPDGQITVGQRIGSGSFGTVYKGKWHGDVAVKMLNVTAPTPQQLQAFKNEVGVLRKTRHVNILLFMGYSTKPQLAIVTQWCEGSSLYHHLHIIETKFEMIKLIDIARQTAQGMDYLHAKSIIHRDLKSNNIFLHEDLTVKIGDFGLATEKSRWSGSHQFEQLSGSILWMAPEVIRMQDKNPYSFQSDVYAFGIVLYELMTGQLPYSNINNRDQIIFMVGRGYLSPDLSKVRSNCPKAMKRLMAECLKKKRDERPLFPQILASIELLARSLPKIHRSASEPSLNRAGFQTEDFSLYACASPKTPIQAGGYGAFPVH

[3] = molecular target: T2, BRAF (Homo sapiens, UniProt P15056); test: KINOMEscan active-site competitive binding assay; details: slash = two separate measurements
T2 construct: purchased DiscoveRx (KINOMEscan service)
T2 sequence (P15056 whole entry): as the sequence (P15056 whole entry V600E) above, with E600V counted along it

[4] = molecular target: VEGFR2 (Homo sapiens, UniProt P35968); test: VEGFR2 autophosphorylation in HuVECs stimulated with VEGF‐A (western blot); format: cell-based; set-up: VEGFR2 autophosphorylation in HuVECs; endogenous in cells; host or cells: HuVEC; details: VEGF‐A stimulation, 0.1% bovine serum albumin, estimated from western blots, read-out: Mean ± SD IC50
Protocol: (§1) Endothelial cell assays were performed as described previously 14. In brief, HuVECs and HuLECs were grown in EBM‐2 supplemented with growth factors (Lonza, Walkersville, MD). After serum starvation for 6 h in EBM‐2 containing 0.1% BSA, 2 × 10^5 cells were treated with various concentrations of each compound for 1 h before stimulation with VEGF‐A (50 ng/mL) or VEGF‐C (200 ng/mL) for 10 min. Cells were lysed, and total cell lysates were analyzed for inhibition of phosphorylation by western blot, using antibodies against total and phosphorylated VEGFR2 and VEGFR3, ERK1/2, and AKT. Signals were detected by […] luminescence (GE Healthcare Biosciences; Pittsburgh, PA).

[5] = molecular target: T3, KIT^D816H (Homo sapiens, UniProt P10721, D816H); test: KINOMEscan active-site competitive binding assay
T3 construct: purchased DiscoveRx
T3 sequence (P10721 26-976 D816H): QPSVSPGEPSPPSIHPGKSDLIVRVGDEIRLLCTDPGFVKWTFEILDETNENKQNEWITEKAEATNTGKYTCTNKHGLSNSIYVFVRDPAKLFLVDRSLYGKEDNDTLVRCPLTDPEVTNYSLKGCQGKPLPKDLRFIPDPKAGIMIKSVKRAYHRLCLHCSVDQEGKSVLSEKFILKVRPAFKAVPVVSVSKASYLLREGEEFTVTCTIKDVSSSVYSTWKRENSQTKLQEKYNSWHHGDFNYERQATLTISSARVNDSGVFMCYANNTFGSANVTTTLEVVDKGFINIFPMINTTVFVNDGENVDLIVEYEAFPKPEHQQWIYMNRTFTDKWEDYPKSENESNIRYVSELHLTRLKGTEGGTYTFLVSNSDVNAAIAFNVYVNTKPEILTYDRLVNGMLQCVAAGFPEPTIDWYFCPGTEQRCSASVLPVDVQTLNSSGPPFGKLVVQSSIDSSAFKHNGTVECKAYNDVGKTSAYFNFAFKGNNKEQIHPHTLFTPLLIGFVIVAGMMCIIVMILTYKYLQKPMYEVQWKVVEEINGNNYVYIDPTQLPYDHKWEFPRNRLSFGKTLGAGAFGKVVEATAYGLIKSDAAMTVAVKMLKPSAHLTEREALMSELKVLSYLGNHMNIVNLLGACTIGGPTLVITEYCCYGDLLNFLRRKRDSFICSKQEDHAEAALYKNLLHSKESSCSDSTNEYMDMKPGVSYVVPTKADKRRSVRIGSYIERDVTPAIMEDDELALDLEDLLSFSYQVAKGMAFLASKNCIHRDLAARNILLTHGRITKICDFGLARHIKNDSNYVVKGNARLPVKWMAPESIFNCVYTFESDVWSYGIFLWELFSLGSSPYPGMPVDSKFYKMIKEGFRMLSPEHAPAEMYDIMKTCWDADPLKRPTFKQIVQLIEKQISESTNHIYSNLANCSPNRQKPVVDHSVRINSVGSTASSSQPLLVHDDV

[6] = molecular target: T4, FLT4 (Homo sapiens, UniProt P35916); test: KINOMEscan active-site competitive binding assay; details: slash = two separate measurements
T4 construct: purchased DiscoveRx (KINOMEscan service)

[7] = molecular target: T5, RET^M918T (Homo sapiens, UniProt P07949, M918T); test: KINOMEscan active-site competitive binding assay
T5 construct: purchased DiscoveRx (KINOMEscan service)

[8] = molecular target: T6, FLT1 (Homo sapiens, UniProt P17948); test: KINOMEscan active-site competitive binding assay; details: slash = two separate measurements
T6 construct: purchased DiscoveRx (KINOMEscan service)
T6 sequence (P17948 27-1338): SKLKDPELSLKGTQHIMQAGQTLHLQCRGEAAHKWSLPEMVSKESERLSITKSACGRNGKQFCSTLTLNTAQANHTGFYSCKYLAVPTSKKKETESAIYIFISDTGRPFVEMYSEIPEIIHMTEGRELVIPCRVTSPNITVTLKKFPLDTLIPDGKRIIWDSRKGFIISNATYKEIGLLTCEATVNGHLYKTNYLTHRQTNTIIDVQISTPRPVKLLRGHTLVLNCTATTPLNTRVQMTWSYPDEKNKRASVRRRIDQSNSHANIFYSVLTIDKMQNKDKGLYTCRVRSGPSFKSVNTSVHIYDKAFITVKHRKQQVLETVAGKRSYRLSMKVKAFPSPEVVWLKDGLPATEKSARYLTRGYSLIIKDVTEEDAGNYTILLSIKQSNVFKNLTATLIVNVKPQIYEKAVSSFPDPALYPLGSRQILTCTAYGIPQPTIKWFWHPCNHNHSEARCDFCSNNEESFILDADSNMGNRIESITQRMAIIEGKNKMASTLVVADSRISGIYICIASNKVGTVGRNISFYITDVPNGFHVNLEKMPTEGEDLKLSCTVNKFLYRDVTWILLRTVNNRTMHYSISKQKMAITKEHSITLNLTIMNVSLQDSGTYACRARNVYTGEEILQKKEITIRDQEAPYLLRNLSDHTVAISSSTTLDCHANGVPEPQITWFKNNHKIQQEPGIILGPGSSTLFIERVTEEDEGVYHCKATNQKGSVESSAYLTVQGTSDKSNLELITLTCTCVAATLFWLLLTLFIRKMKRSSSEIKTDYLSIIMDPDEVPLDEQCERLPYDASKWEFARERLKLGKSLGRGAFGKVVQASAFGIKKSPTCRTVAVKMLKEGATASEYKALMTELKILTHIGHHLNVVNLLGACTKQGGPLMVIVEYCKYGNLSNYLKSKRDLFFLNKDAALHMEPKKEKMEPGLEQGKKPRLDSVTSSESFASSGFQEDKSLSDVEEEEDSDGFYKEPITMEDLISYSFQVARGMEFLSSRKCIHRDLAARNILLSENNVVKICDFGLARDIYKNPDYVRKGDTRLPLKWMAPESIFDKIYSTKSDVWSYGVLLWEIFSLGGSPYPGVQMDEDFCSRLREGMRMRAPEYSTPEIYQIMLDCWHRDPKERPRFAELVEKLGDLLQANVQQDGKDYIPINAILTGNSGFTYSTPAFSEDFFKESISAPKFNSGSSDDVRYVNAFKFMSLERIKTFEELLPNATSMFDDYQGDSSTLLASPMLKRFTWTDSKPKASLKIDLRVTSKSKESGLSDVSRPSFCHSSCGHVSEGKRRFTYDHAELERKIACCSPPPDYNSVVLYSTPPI

[9] = molecular target: PDGFRs; test: KINOMEscan active-site competitive binding assay; details: range among family members
[10] = molecular target: T7, RET^V804L (Homo sapiens, UniProt P07949, V804L); test: KINOMEscan active-site competitive binding assay
T7 construct: purchased DiscoveRx (KINOMEscan service)

[11] = molecular target: T8, KIT^V559D,T670I (Homo sapiens, UniProt P10721, T670I/V559D); test: KINOMEscan active-site competitive binding assay
T8 construct: purchased DiscoveRx (KINOMEscan service)
T8 sequence (P10721 26-976 V559D/T670I): as the sequence (P10721 26-976 D816H) above, with V534D, T645I, H791D counted along it

[12] = molecular target: T9, PDGFRA (Homo sapiens, UniProt P16234); test: KINOMEscan active-site competitive binding assay; details: slash = two separate measurements
T9 construct: purchased DiscoveRx

[13] = molecular target: T1, BRAF^V600E; test: Cellular kinase phosphorylation assay, RAT‐1/BRAF^V600E; format: cell-based; set-up: host or cells: RAT-1 rat fibroblasts; details: RAT‐1/BRAF^V600E cells; without serum; read-out: Mean ± SD IC50
[14] = molecular target: T10, VEGFR3 (Homo sapiens, UniProt P35916); test: VEGFR3 autophosphorylation in HuLECs stimulated with VEGF‐C (western blot); format: cell-based; details: VEGF‐C stimulation, 0.1% bovine serum albumin, estimated from western blots, read-out: Mean ± SD IC50
T10 construct: VEGFR3 autophosphorylation in HuLECs; endogenous in cells; host or cells: HuLEC
Protocol: as §1

[15] = molecular target: T11, KIT^K642E (Homo sapiens, UniProt P10721, K642E); test: Cellular kinase phosphorylation assay, GIST882/KIT^K642E; format: cell-based; details: GIST882/KIT^K642E cells; 0.1% bovine serum albumin; brackets = number of experiments; read-out: Mean ± SD IC50
T11 construct: KIT^K642E assays were performed in a GIST cell line (GIST882); endogenous in cells; host or cells: GIST882
T11 sequence (P10721 26-976 K642E): as the sequence (P10721 26-976 D816H) above, with K617E, H791D counted along it

[16] = molecular target: T12, PDGFRα (Homo sapiens, UniProt P16234); test: PDGFRA phosphorylation assay, PathHunter cell line U2OS/PDGFRA; format: cell-based; details: U2OS/PDGFRA cells; 0.1% bovine serum albumin; read-out: Mean ± SD IC50
T12 construct: host or cells: PathHunter cell line (U2OS/PDGFRA)
Protocol: VEGFR2 assays were performed in murine fibroblasts (NIH‐3T3) in the presence of 0.1 mg/mL human serum albumin. […] Substrate phosphorylation was determined from total cell lysates by enzyme‐linked immunosorbent assay. In addition, an FGFR phosphorylation assay was performed using a human gastric carcinoma cell line (SNU‐16), with pFGFR assessed by western blot. The PDGFRA phosphorylation assay was performed by DiscoverRx using the DiscoverRx PathHunter cell line, modified to express PDGFRA. […] The assay signal was generated using a detection reagent cocktail and measured by chemoluminescence 13. Both the PDGFRA and FGFR assays were performed in the presence of 0.1 mg/mL BSA.

[17] = molecular target: T13, RET^V804M (Homo sapiens, UniProt P07949, V804M); test: KINOMEscan active-site competitive binding assay
T13 construct: purchased DiscoveRx (KINOMEscan service)

[18] = molecular target: T14, KIT^V559D,V654A (Homo sapiens, UniProt P10721, V559D/V654A); test: KINOMEscan active-site competitive binding assay
T14 construct: purchased DiscoveRx (KINOMEscan service)
T14 sequence (P10721 26-976 V559D/V654A): as the sequence (P10721 26-976 D816H) above, with V534D, V629A, H791D counted along it

[19] = molecular target: T15, TIE‐2 (Homo sapiens, UniProt Q02763); test: Cellular kinase phosphorylation assay, CHO/TIE2; format: cell-based; details: CHO/TIE2 cells; without serum; brackets = number of experiments; read-out: Mean ± SD IC50
T15 sequence (Q02763 23-1124): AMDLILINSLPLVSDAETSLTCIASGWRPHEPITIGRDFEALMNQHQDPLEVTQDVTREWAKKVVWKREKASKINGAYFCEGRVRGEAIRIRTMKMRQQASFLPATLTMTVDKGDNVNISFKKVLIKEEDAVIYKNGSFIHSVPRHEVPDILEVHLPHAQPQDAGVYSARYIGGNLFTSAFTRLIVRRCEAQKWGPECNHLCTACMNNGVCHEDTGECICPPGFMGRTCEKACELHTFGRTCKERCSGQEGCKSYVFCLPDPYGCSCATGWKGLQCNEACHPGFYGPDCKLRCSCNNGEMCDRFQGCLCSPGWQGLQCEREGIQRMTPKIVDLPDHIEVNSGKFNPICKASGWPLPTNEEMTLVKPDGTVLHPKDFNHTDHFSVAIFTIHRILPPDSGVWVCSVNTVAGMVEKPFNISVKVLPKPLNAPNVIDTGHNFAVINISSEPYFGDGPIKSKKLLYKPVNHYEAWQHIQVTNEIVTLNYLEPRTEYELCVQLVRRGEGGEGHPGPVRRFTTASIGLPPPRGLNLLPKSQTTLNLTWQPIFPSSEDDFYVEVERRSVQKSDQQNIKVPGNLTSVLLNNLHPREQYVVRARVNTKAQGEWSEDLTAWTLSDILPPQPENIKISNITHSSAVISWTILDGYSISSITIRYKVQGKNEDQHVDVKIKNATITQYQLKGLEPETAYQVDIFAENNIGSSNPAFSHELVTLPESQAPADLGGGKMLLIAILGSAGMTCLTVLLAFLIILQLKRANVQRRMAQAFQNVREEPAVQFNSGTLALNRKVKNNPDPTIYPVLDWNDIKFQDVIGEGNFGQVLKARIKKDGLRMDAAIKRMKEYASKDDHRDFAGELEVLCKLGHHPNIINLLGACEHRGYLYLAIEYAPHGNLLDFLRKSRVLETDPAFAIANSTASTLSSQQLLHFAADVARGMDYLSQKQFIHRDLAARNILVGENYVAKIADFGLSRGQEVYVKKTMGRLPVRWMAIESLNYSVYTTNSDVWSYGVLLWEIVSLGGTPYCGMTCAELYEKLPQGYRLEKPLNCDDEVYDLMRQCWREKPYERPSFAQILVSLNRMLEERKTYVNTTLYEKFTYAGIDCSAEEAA

[20] = molecular target: RAFs; test: KINOMEscan active-site competitive binding assay; details: range among family members
[21] = molecular target: T15, TIE‐2; test: KINOMEscan active-site competitive binding assay; set-up: purchased DiscoveRx (KINOMEscan service); details: data not shown
[22] = molecular target: T16, KIT^A829P (Homo sapiens, UniProt P10721, A829P); test: KINOMEscan active-site competitive binding assay
T16 construct: purchased DiscoveRx
T16 sequence (P10721 26-976 A829P): as the sequence (P10721 26-976 D816H) above, with H791D, A804P counted along it

[23] = molecular target: T17, RET (Homo sapiens, UniProt P07949); test: KINOMEscan active-site competitive binding assay; details: slash = two separate measurements
T17 construct: purchased DiscoveRx

[24] = molecular target: T18, KIT^V559D (Homo sapiens, UniProt P10721, V559D); test: KINOMEscan active-site competitive binding assay
T18 construct: purchased DiscoveRx (KINOMEscan service)
T18 sequence (P10721 26-976 V559D): as the sequence (P10721 26-976 D816H) above, with V534D, H791D counted along it

[25] = molecular target: T19, FLT3 (Homo sapiens, UniProt P36888); test: KINOMEscan active-site competitive binding assay; details: slash = two separate measurements
T19 construct: purchased DiscoveRx (KINOMEscan service)

[26] = tested on: HuLECs; details: 100 nmol/L, 40 h, regorafenib data taken from ref 14; cited from earlier work
[27] = tested on: recombinant murine VEGFR2; details: cited from earlier work

SMILES | Inhibition of VEGF‐C‐induced migration [1] | Kd [2] [nM] | Kd [3] [nM] | IC50 [4] [nM] | Kd [5] [nM] | Kd [6] [nM] | Kd [7] [nM] | Kd [8] [nM] | Kd [9] [nM] | Kd [10] [nM] | Kd [11] [nM] | IC50 [13] [nM] | IC50 [14] [nM] | IC50 [16] [nM] | Kd [17] [nM] | Kd [18] [nM] | IC50 [19] [nM] | Kd [21] [nM] | Kd [22] [nM] | Kd [23] [nM] | also measured
CNC(=O)c1cc(Oc2ccc(NC(=O)Nc3ccc(Cl)c(C(F)(F)F)c3)c(F)c2)cc[n+]1[O-] [M‐2] | inhibited | 15 | 24 | ~4 | 490 | 46 | 7.4 | 23 | 7.3 to 11 | 13 | 12 | 21 | ~4 | 44 | 20 | 51 | 66 ± 35 | 790 | 19 | 7.6 | Kd [12]: 7.3 nM; IC50 [15]: 4 ± 2 nM; Kd [20]: 24 to 130 nM; Kd [24]: 12 nM
NC(=O)c1cc(Oc2ccc(NC(=O)Nc3ccc(Cl)c(C(F)(F)F)c3)c(F)c2)cc[n+]1[O-] [M‐5] | inhibited | 11 | 17 | ~16 | 460 | 40 | 5.8 | 17 | 11 | 15 | 11 | 27 | ~16 | 61 | 25 | 42 | 180 | 1200 | 19 | 5.8 | Kd [25]: 2.6 nM; Kd [24]: 9.6 nM
CNC(=O)c1cc(Oc2ccc(NC(=O)Nc3ccc(Cl)c(C(F)(F)F)c3)c(F)c2)ccn1 [Regorafenib, reference compound] |  |  |  |  |  |  |  |  |  |  |  |  |  |  |  |  |  |  |  |  | Inhibition of VEGF‐C‐induced migration [26]: inhibited; IC50 [27]: ~4 nM
